# Results reported in ChEMBL document CHEMBL1201862, “PubChem BioAssay data set” (2004).
# pEC50: −log10 of the molar value. Calls of active or inactive are those of the source.
# Columns and labels:
# HEK293 [1] = test: PMA/Ionomycin induced NF-kB luciferase assay in 293- NF-kB-Luc stable cells. [Related pubchem assays: 1299, 1270, 1295, 1375, 1287, 1281, 1293, 1291, 1289, 1280, 465, 1364, 1282, 1372, 1365, 1370, 1367, 1366, 1269, 1373, 1292, 1290, 1302, 1371, 1283, 1271, 1294, 1374, 1368, 1369 ]; format: functional, cell-based; conditions: Homo sapiens
# [2] = biological target: T1, Luciferin 4-monooxygenase (Photinus pyralis, UniProt P08659); test: In vitro luciferase assay using purified luciferase. [Related pubchem assays: 1299, 1270, 1295, 1375, 1287, 1281, 1293, 1291, 1289, 1280, 465, 1364, 1282, 1372, 1365, 1370, 1367, 1366, 1266, 1373, 1292, 1290, 1302, 1371, 1283, 1271, 1294, 1374, 1368, 1369 ]
# T1 sequence (P08659 whole entry): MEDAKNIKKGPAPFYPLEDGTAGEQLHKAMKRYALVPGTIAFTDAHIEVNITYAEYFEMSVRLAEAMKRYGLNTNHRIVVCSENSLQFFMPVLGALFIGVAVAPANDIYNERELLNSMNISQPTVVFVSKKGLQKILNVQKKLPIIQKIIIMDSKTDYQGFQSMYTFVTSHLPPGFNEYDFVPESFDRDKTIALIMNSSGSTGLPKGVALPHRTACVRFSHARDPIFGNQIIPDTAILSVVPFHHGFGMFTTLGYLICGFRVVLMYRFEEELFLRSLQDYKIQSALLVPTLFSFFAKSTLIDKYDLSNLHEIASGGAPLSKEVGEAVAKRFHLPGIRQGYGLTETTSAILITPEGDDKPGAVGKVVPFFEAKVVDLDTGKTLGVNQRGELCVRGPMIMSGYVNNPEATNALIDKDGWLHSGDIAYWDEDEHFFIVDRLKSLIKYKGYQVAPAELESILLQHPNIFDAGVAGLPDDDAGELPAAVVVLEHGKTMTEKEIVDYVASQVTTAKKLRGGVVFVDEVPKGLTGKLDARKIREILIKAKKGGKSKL
# HEK293 [3] = test: PMA/Ionomycin-induced IL-8 production in HEK293- NF-kB-Luc stable cells. [Related pubchem assays: 1299, 1295, 1375, 1287, 1281, 1293, 1291, 1289, 1280, 465, 1364, 1282, 1372, 1365, 1367, 1366, 1266, 1269, 1373, 1292, 1290, 1302, 1371, 1283, 1271, 1294, 1374, 1368, 1369 ]; format: functional, cell-based; conditions: Homo sapiens
# HEK293 [4] = test: Cytotoxicity assay in HEK293 cells. [Related pubchem assays (depositor defined):AID1266, AID1269, AID1270, AID1271, AID1280, AID1281, AID1282, AID1283, AID1287, AID1289, AID1290, AID1291, AID1292, AID1293, AID1294, AID1295, AID1299, AID1302, AID1364, AID1365, AID1366, AID1367, AID1369, AID1370, AID1371, AID1372, AID1373, AID1374, AID1375, AID1384 …; format: functional, cell-based; conditions: Homo sapiens
# HEK293 [5] = test: TNF Induced NF-kB Luciferase in 293-NF-kB-Luc Stable Cells. [Related pubchem assays: 1266, 1299, 1269, 1373, 1292, 1290, 1302, 1371, 1283, 1270, 1295, 1271, 1375, 1294, 1374, 1281, 1293, 1291, 1289, 1280, 465, 1368, 1364, 1282, 1372, 1365, 1369, 1370, 1367, 1366 ]; format: functional, cell-based; conditions: Homo sapiens
# [6] = HEp-2 cell cytotoxicity, dose response, cytotoxicity control for RSV inhibitor project, HTS (AID 2410); format: functional; conditions: human respiratory syncytial virus
# [7] = microbe, parasite or virus in culture; format: functional; conditions: Mycobacterium tuberculosis
# [8] = biological target: T2, Delta-type opioid receptor (Homo sapiens, UniProt P41143); test: HTS Image-Based Screen for Antagonists of the DOR Receptor. [Related pubchem assays (depositor defined):AID1777, AID1785, AID1786, AID2133]; format: functional
# T2 sequence (P41143 whole entry): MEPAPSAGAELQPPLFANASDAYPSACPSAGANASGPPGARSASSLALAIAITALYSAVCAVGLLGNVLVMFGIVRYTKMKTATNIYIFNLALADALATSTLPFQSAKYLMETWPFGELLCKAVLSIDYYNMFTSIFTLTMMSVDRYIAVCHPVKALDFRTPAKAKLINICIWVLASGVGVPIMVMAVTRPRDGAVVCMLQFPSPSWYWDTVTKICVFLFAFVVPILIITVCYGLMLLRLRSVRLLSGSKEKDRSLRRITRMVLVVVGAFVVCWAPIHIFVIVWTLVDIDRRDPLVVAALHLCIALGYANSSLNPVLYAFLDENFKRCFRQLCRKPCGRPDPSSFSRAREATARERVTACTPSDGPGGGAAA
# Mu-type opioid receptor = Mu-type opioid receptor (Homo sapiens, UniProt P35372); test: HTS Image-Based Screen for Agonists of the MOR Receptor. [Related pubchem assays (depositor defined):AID1777, AID1785, AID1786, AID2133]; format: functional;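 also: imaging of beta-arrestin GFP recruitment into spots after receptor activation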
# [9] = biological target: T2, Delta-type opioid receptor; test: HTS Image-Based Screen for Agonists of the DOR Receptor. [Related pubchem assays (depositor defined):AID1777, AID1786, AID2133]; format: functional
# [10] = biological target: T3, Kappa-type opioid receptor (Homo sapiens, UniProt P41145); format: functional
# T3 sequence (P41145 whole entry): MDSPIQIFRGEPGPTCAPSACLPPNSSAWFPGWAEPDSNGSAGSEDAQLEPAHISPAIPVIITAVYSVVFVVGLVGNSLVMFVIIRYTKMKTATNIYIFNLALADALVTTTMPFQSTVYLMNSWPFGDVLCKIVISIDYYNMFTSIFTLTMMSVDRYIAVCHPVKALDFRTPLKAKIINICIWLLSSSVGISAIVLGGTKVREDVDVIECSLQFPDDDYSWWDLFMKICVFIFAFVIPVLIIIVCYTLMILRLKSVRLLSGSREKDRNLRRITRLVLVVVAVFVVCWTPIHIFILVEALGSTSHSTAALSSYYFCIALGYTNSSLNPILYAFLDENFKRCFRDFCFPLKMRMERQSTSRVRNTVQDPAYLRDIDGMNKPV
# [11] = biological target: T3, Kappa-type opioid receptor; format: functional; remark: listed apart in the source
# Cytochrome P450 2C19 = Cytochrome P450 2C19 (Homo sapiens, UniProt P33261); test: Cytochrome panel assay with activity outcomes. Panel member name: p450-cyp2c19 Compounds with AC50 equal or less than 10 uM are considered active; format: functional; conditions: read-out: AC50
# Cytochrome P450 2C19, sequence (P33261 whole entry): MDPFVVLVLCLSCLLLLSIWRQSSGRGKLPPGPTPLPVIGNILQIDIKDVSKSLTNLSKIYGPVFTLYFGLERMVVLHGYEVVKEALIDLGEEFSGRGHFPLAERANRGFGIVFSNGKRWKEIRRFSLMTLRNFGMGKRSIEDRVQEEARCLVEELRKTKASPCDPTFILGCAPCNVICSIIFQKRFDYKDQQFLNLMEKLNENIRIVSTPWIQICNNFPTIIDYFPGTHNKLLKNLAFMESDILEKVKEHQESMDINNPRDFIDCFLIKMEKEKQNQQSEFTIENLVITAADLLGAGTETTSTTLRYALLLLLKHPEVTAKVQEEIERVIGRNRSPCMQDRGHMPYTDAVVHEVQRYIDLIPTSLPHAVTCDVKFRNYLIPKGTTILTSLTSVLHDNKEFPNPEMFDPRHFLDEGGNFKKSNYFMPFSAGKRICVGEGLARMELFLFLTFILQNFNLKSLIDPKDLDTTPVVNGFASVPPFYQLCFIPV
# Cytochrome P450 2C9 = Cytochrome P450 2C9 (Homo sapiens, UniProt P11712)
# [12] = biological target: Lysosomal acid glucosylceramidase (Homo sapiens, UniProt P04062); test: Dose response cell-based high throughput screening assay to identify enhancers of beta-glucosidase activity. [Related pubchem assays: 784 ]; format: functional
# Aspartyl aminopeptidase = biological target: T4, Aspartyl aminopeptidase (Plasmodium falciparum 3D7, UniProt Q8I2J3)
# T4 sequence (Q8I2J3 whole entry): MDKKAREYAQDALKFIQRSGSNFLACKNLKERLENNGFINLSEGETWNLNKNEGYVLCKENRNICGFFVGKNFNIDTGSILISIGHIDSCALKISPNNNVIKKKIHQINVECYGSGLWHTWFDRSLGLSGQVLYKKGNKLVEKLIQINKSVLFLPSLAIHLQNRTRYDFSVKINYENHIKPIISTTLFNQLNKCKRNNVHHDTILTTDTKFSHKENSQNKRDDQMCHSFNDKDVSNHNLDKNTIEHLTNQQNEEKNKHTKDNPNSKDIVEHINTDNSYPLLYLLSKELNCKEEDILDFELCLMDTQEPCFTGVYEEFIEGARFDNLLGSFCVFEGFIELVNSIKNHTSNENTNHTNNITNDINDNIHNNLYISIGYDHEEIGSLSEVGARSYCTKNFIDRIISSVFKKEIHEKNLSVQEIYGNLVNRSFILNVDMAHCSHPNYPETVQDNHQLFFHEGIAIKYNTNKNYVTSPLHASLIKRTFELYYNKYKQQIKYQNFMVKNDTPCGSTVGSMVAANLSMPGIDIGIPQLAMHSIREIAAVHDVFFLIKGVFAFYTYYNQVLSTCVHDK
# Procathepsin L = Procathepsin L (Homo sapiens, UniProt P07711)
# [13] = biological target: Neuropeptides B/W receptor type 1 (Homo sapiens, UniProt P48145); test: Fluorescence-based dose response cell-based high throughput screening assay to identify antagonists of the G-protein coupled receptor 7 (GPR7). [Related pubchem assays: 1952 (Screening assay (GPR7 antagonists).), 1880 (Summary AID.)]; format: functional
# [14] = biological target: Melanin-concentrating hormone receptor 1 (Homo sapiens, UniProt Q99705); test: Fluorescence-based counterscreen for antagonists of the G-protein coupled receptor 7 (GPR7): cell-based high throughput dose response assay to identify antagonists of the melanin-concentrating hormone receptor 1 (MCHR1).; format: functional
# HEK293 [15] = test: Fluorescence-based counterscreen for potentiators or agonists of NPY-Y2: cell-based high-throughput dose response assay to identify inhibitors of cyclic nucleotide gated ion channel (CNGC) activity. In this assay, the parental HEK293 cell line transfected with a cyclic-nucleotide gated ion channel (CNGC)-based cAMP sensor is used to measure inhibition of isoproterenol-induced CNGC activity by test compound.; format: functional; conditions: Homo sapiens
# [16] = biological target: Neuropeptide Y receptor type 2 (Homo sapiens, UniProt P49146); test: Fluorescence-based cell-based high-throughput dose response assay for agonists of NPY-Y2. [Related pubchem assays: 1703 (Screening assay (CNGC inhibitors).), 1359 (Screening assay (NPY-Y2 potentiators or agonists).), 1304 (Screening assay (NPY-Y1 potentiators or agonists).), 1710 (Screening assay (NPY-Y2 agonists).), 1791 (Summary AID.)]; format: functional
# [17] = biological target: Neuropeptide Y receptor type 1 (Homo sapiens, UniProt P25929); test: Fluorescence-based counterscreen for agonists of NPY-Y2: cell-based high-throughput dose response assay for agonists of NPY-Y1.; format: functional
# [18] = biological target: Eukaryotic translation initiation factor 4H (Homo sapiens, UniProt Q15056); test: human eIF4H binding inhibitors, primary screen, translation initiation inhibitor project, biochemical, uHTS, fluorescence polarization (AID 2012)
# [19] = biological target: T1, Luciferin 4-monooxygenase; test: firefly luciferase enzyme inhibitors, dose response, biochemical, luminescence (AID 1891)
# [20] = Luminescence Cell-Based Dose Confirmation HTS to Identify Inhibitors of Platelet Dense Granule Release. [Related pubchem assays: 1663 (Primary HTS), 1678 (Summary of Project)]; format: functional
# [21] = biological target: Polyadenylate-binding protein 1 (Homo sapiens, UniProt P11940); test: PABP poly(A) RNA binding inhibitors, primary screen, biochemical, fluorescence polarization, uHTS (AID 2014)
# [22] = biological target: Metabotropic glutamate receptor 4 (Rattus norvegicus, UniProt P31423); test: Modulation of the Metabotropic Glutamate Receptor mGluR4: Rat PAM Potency. [Related pubchem assays (depositor defined):AID2437, AID2807]; format: functional
# [23] = biological target: T5, Scavenger receptor class B member 1 (Mus musculus, UniProt Q61009); test: inhibitors of SR-BI mediated HDL lipid uptake, dose response, ldlA[mSR-BI] cells, fluorescence, cherry pick (AID 493194); format: functional, cell-based;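 also: cellular uptake of fluorescent DiI-labeled HDL measured as cell fluorescence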
# T5 sequence (Q61009 whole entry): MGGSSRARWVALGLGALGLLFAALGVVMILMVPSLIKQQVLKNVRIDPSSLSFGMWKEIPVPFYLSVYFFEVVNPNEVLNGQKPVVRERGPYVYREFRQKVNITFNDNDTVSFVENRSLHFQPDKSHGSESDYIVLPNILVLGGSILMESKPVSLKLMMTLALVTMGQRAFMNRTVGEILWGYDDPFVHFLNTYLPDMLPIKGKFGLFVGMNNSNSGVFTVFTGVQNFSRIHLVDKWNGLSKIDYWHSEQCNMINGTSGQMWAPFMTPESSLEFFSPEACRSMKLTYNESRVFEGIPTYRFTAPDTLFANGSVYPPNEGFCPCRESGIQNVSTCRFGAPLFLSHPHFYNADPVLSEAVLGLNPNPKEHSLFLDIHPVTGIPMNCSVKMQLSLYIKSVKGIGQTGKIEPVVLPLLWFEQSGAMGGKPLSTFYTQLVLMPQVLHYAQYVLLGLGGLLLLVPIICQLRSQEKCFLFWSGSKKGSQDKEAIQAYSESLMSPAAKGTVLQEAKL
# [24] = biological target: T6, Voltage-gated N-type calcium channel alpha-1B subunit/Amyloid beta A4 precursor protein-binding family A member 1 (Homo sapiens, UniProt Q00975+Q02410); test: disruptors of Mint-PDZ/N-type channel peptide interaction – biochemical, HTRF, set 2, SAR follow-up (AID 434980); format: functional
# T6 sequence (Q00975 whole entry): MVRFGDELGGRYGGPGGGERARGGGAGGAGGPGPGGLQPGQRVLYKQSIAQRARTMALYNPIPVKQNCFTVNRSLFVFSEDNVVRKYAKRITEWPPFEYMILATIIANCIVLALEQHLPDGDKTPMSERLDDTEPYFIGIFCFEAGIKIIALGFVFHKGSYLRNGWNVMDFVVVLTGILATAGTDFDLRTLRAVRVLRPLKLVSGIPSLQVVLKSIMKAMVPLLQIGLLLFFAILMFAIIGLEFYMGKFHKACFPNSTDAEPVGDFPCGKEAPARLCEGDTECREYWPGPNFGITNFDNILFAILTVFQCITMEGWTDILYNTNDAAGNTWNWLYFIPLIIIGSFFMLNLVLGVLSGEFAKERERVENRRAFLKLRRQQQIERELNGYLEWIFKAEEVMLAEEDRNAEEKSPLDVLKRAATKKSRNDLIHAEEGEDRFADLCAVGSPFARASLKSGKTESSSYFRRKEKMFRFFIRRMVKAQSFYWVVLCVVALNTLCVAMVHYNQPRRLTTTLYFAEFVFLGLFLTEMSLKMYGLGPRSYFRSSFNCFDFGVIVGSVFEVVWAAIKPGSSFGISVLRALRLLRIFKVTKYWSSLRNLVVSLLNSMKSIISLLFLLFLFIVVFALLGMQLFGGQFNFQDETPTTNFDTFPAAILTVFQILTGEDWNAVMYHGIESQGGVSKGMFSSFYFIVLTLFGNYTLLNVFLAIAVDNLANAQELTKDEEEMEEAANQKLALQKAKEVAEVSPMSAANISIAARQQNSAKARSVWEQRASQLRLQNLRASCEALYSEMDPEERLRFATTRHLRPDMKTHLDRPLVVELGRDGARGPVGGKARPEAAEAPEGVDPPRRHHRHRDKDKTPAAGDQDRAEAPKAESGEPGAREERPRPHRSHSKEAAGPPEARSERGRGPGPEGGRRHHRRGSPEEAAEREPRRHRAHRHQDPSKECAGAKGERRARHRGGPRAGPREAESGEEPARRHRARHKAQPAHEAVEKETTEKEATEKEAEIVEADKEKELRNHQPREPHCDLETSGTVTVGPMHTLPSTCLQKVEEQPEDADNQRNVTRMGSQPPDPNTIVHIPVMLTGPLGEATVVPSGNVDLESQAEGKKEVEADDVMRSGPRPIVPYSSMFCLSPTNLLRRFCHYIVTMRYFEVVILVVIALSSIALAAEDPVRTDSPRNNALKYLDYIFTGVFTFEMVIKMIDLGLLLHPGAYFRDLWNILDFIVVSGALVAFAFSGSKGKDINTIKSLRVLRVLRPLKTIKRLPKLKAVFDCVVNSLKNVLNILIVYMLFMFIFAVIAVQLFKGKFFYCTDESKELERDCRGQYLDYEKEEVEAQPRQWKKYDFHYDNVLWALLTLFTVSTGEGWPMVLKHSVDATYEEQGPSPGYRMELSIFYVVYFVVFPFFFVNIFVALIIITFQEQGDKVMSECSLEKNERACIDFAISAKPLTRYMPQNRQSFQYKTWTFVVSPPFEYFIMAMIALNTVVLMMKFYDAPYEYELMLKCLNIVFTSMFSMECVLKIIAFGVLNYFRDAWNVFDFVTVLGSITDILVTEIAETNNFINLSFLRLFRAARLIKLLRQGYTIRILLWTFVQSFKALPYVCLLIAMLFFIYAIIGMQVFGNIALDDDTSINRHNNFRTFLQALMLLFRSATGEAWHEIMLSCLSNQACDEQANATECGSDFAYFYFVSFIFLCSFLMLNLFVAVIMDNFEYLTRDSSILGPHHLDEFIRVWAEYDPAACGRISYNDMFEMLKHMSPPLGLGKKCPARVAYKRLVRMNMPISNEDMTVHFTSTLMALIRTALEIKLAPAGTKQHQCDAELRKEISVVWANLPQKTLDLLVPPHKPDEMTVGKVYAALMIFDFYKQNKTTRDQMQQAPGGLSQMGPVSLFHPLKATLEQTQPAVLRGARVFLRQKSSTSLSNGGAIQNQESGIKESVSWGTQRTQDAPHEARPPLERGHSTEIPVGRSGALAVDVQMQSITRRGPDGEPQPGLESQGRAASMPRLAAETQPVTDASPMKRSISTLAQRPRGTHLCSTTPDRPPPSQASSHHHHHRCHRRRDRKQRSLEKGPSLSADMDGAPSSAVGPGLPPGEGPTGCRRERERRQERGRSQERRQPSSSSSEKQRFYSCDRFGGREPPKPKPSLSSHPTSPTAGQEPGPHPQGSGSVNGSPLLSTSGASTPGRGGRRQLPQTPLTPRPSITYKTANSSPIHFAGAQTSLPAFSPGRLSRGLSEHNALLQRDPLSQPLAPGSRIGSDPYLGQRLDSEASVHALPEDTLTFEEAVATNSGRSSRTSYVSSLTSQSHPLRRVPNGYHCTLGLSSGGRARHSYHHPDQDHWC
# T6 sequence (Q02410 whole entry): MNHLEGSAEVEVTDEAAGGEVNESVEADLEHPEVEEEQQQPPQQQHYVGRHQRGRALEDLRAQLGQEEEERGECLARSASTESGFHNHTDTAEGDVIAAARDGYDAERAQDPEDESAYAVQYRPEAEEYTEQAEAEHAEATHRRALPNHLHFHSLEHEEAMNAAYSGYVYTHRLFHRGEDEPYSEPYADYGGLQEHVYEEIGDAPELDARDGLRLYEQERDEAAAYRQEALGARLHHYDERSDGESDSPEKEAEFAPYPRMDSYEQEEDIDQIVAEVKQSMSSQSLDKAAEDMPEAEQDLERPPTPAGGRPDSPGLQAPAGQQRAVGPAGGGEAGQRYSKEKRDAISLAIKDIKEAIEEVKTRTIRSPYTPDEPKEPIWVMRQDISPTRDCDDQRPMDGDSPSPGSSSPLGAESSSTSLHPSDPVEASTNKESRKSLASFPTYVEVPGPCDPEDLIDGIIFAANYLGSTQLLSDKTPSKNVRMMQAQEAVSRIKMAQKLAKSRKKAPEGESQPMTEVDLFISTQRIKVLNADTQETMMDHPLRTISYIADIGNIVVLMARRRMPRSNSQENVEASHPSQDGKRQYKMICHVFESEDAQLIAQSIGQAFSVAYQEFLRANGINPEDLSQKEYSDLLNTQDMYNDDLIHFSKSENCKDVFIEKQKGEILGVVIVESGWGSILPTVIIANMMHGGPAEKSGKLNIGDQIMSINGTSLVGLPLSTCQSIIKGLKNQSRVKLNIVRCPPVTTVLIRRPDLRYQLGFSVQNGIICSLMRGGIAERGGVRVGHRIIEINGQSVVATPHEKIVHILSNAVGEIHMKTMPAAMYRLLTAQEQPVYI
# [25] = biological target: T6, Voltage-gated N-type calcium channel alpha-1B subunit/Amyloid beta A4 precursor protein-binding family A member 1; test: disruptors of Mint-PDZ/N-type channel peptide interaction – biochemical, HTRF, SAR follow-up (AID 2489); format: functional
# [26] = biological target: T7, Heat shock factor protein 1 (Mus musculus, UniProt P38532); test: inhibition of MG132-induced HSE-luciferase signal, confirmation, cell-based, NIH3T3, luminescence, dose retest (AID 2382); format: functional;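 also: NIH3T3 fibroblasts with HSF1-driven luciferase reporter stressed by proteasome inhibitor MG132; luminescence from HSF1-driven luciferase expression after 8 hours of MG132 stress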
# T7 sequence (P38532 whole entry): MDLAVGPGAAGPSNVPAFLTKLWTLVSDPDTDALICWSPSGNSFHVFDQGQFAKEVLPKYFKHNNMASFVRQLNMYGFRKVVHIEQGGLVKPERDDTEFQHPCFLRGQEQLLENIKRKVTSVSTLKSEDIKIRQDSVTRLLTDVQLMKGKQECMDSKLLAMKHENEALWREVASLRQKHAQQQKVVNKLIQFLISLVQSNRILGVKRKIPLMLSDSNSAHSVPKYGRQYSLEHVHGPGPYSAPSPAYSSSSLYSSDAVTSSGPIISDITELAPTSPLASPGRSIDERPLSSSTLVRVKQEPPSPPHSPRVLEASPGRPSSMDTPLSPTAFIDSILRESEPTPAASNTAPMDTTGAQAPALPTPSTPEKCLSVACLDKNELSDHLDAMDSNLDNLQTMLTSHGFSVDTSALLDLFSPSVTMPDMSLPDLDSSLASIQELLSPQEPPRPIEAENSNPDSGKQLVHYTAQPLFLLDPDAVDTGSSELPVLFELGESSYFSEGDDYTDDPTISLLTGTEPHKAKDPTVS
# [27] = inhibitors of Bluetongue virus cytopathic effect, confirmation, arbovirus, BSR cells (AID 1250); format: functional;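 also: protection from viral cytopathic effect measured as cell viability by ATP luminescence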
smiles,measurement,setting,value
CCOc1ccc(N(CC(=O)Nc2ccccc2Br)S(C)(=O)=O)cc1,EC50,HEK293 [1],2.78 µM (active)
same,EC50,[2],> 8 µM (not active)
same,EC50,HEK293 [3],8.11 µM (not active)
same,EC50,HEK293 [4],15.5 µM (inactive)
same,EC50,HEK293 [5],> 8 µM (not active)
COc1ccc(C(C[N+](=O)[O-])c2c(-c3ccccc3)cc3ccccn23)c(OC)c1 (stereo not drawn),CC50,[6],> 50 µM (active)
same,CC50,[7],20.3 µM (active)
same,IC50,cells,36.3 µM (active)
CCC(C)(C(=O)NC1CCCC1)N(Cc1ccco1)C(=O)c1ccccn1 (stereo not drawn),IC50,[8],> 32 µM (inactive)
same,EC50,Mu-type opioid receptor,> 32 µM (inactive)
same,EC50,[9],> 32 µM (inactive)
same,pEC50,[10],5.04
same,pEC50,[11],4.94
same,AC50,Cytochrome P450 2C19,7.94 µM (inconclusive)
same,AC50,Cytochrome P450 2C9,12.6 µM (inconclusive)
COC(=O)c1cn(-c2ccccc2)nc1-c1cccnc1,EC50,[12],> 50 µM (not active)
Cc1cccc(N=C(S)Nn2cnnc2)c1C,IC50,Aspartyl aminopeptidase,1.9 µM (active)
same,IC50,Procathepsin L,> 59.6 µM (not active)
CCOC(=O)c1c[nH]nc1N=C(S)Nc1ccc(OC)cc1,IC50,[13],> 43.8 µM (not active)
same,IC50,[14],> 14.6 µM (not active)
COc1ccc(COC(=O)c2ccc3c(=O)n4c(nc3c2)CCC4)cc1F,EC50,HEK293 [15],> 35.4 µM (not active)
same,EC50,[16],> 35.4 µM (not active)
same,EC50,[17],> 35.4 µM (not active)
CC(=O)c1cccc(NC(=O)CCc2nnc3ccc(NCc4ccco4)nn23)c1,IC50,[18],12 µM (active)
same,EC50,[19],> 112 µM (not active)
same,EC50,[20],> 112 µM (not active)
same,IC50,[21],77 µM (active)
COc1cc(NC(=O)c2ccccn2)ccc1NC(=O)c1ccccc1Cl,EC50,[22],110 nM (active)
CCOc1ccc(CCNC(=O)C2CC(=O)N(c3ccccc3OCC)C2)cc1OCC (stereo not drawn),AC50,[23],17.3 µM (active)
CCCOc1ccc(N2C(=O)C3C(C2=O)C2(C)C=CC3(C)O2)cc1 (stereo not drawn),IC50,[24],> 56.8 µM (inactive)
same,IC50,[25],9.66 µM (active)
COc1ccc2ccccc2c1/C=N/N1C(=O)CSC1=S,EC50,[26],> 195 µM (not active)
same,IC50,[27],21.1 µM (active)
